{"source": "patent US8247211B2", "about": "“Glycopeptide antibiotics” (American Cyanamid Company, priority 2001, dated 2012)", "assay_in_all_cases": "In vitro antibacterial evaluation: minimum inhibitory concentration (MIC), broth dilution method", "assay_type_in_all_cases": "cell-based", "conditions_in_all_cases": "18 hours at 35° C.", "key": {"Enterococcus sp.": {"test_system": "Enterococcus sp.", "procedure,_shortened": "(§1)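 Test strains, among them recent clinical isolates carrying methicillin, penicillin and/or vancomycin resistance, were inoculated at 5×10^5 CFU/mL. A broth dilution series spanning 64-0.06 μg/mL in Muller-Hinton II […] (NCCLS M7-A2) defined the MIC as the lowest growth-inhibiting concentration.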"}, "Escherichia coli": {"test_system": "Escherichia coli", "procedure,_shortened": "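Broth dilution per NCCLS M7-A2 in Muller-Hinton II […], inoculum 5×10^5 CFU/mL, antibiotic tested over 64-0.06 μg/mL. MIC is taken as the lowest concentration that inhibits growth. Panel includes recent clinical isolates resistant to methicillin, penicillin and/or vancomycin.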"}, "Staphylococcus sp.": {"test_system": "Staphylococcus sp.", "procedure,_shortened": "as §1"}, "Streptococcus sp.": {"test_system": "Streptococcus sp.", "procedure,_shortened": "as §1"}}}
{"smiles": "CCCCCNC(=O)OC1C(CO)OC(OC2C(CO)OC(Oc3ccc(CC4NC(=O)C(C(C)c5ccccc5)NC(=O)CNC(=O)C(CO)NC(=O)C(C(O)C5CNC(=N)N5C5OC(CO)C(O)C(O)C5O)NC(=O)C(C(O)C5CNC(=N)N5)NC4=O)cc3)C(O)C2O)C(O)C1O", "note": "(stereo not drawn) [Example 251, α-O-[(Pentylamino)carbonyl]-cyclo[glycyl-β-methylphenylalanyl-O-(4-O-hexopyranosylhexopyranosyl)tyrosyl-3-(2-iminoimidazolidin-4-yl)seryl-3-(3-hexopyranosyl-2-iminoimidazolidin-4-yl)serylseryl]]", "values": [{"measurement": "MIC Enterococcus avium (GC 4558)", "setting": "Enterococcus sp.; Enterococcus avium (GC 4558)", "value": ">64", "unit": "µg/mL"}, {"measurement": "MIC Enterococcus faecalis (ATCC 29212)", "setting": "Enterococcus sp.; Enterococcus faecalis (ATCC 29212)", "value": ">64", "unit": "µg/mL"}, {"measurement": "MIC Enterococcus faecalis (GC 2242)", "setting": "Enterococcus sp.; Enterococcus faecalis (GC 2242)", "value": ">64", "unit": "µg/mL"}, {"measurement": "MIC Enterococcus faecalis (GC 4552)", "setting": "Enterococcus sp.; Enterococcus faecalis (GC 4552)", "value": ">64", "unit": "µg/mL"}, {"measurement": "MIC Enterococcus faecalis (GC 4553)", "setting": "Enterococcus sp.; Enterococcus faecalis (GC 4553)", "value": ">64", "unit": "µg/mL"}, {"measurement": "MIC Enterococcus faecalis (GC 4554)", "setting": "Enterococcus sp.; Enterococcus faecalis (GC 4554)", "value": ">64", "unit": "µg/mL"}, {"measurement": "MIC Enterococcus faecium (GC 2243)", "setting": "Enterococcus sp.; Enterococcus faecium (GC 2243)", "value": ">64", "unit": "µg/mL"}, {"measurement": "MIC Enterococcus faecium (GC 4556)", "setting": "Enterococcus sp.; Enterococcus faecium (GC 4556)", "value": ">64", "unit": "µg/mL"}, {"measurement": "MIC Enterococcus faecium (GC 4557)", "setting": "Enterococcus sp.; Enterococcus faecium (GC 4557)", "value": 64, "unit": "µg/mL"}, {"measurement": "MIC Escherichia coli (ATCC 25922)", "setting": "Escherichia coli; Escherichia coli (ATCC 25922)", "value": ">64", "unit": "µg/mL"}, {"measurement": "MIC Escherichia coli (GC 4559)", "setting": "Escherichia coli; Escherichia coli (GC 4559)", "value": ">64", "unit": "µg/mL"}, {"measurement": "MIC Escherichia coli (GC 4560)", "setting": "Escherichia coli; Escherichia coli (GC 4560)", "value": 4, "unit": "µg/mL"}, {"measurement": "MIC Coagulase Negative Staphylococcus (GC 4547)", "setting": "Staphylococcus sp.; Coagulase Negative Staphylococcus (GC 4547)", "value": ">64", "unit": "µg/mL"}, {"measurement": "MIC Coagulase Negative Staphylococcus (GC 4548)", "setting": "Staphylococcus sp.; Coagulase Negative Staphylococcus (GC 4548)", "value": ">64", "unit": "µg/mL"}, {"measurement": "MIC Coagulase Negative Staphylococcus (GC 4549)", "setting": "Staphylococcus sp.; Coagulase Negative Staphylococcus (GC 4549)", "value": ">64", "unit": "µg/mL"}, {"measurement": "MIC Coagulase Negative Staphylococcus (GC 4551)", "setting": "Staphylococcus sp.; Coagulase Negative Staphylococcus (GC 4551)", "value": ">64", "unit": "µg/mL"}, {"measurement": "MIC Coagulase Negative Staphylococcus (ID-3941)", "setting": "Staphylococcus sp.; Coagulase Negative Staphylococcus (ID-3941)", "value": 64, "unit": "µg/mL"}, {"measurement": "MIC Staphylococcus aureus (ATCC 29213)", "setting": "Staphylococcus sp.; Staphylococcus aureus (ATCC 29213)", "value": ">64", "unit": "µg/mL"}, {"measurement": "MIC Staphylococcus aureus (GC 1131)", "setting": "Staphylococcus sp.; Staphylococcus aureus (GC 1131)", "value": ">64", "unit": "µg/mL"}, {"measurement": "MIC Staphylococcus aureus (GC 4541)", "setting": "Staphylococcus sp.; Staphylococcus aureus (GC 4541)", "value": ">64", "unit": "µg/mL"}, {"measurement": "MIC Staphylococcus aureus (GC 4542)", "setting": "Staphylococcus sp.; Staphylococcus aureus (GC 4542)", "value": ">64", "unit": "µg/mL"}, {"measurement": "MIC Staphylococcus aureus (GC 4544)", "setting": "Staphylococcus sp.; Staphylococcus aureus (GC 4544)", "value": ">64", "unit": "µg/mL"}, {"measurement": "MIC Staphylococcus aureus (GC 4545)", "setting": "Staphylococcus sp.; Staphylococcus aureus (GC 4545)", "value": ">64", "unit": "µg/mL"}, {"measurement": "MIC Staphylococcus aureus-SMITH (GC 4543)", "setting": "Staphylococcus sp.; Staphylococcus aureus-SMITH (GC 4543)", "value": ">64", "unit": "µg/mL"}, {"measurement": "MIC Staphylococcus haemolyticus (GC 4546)", "setting": "Staphylococcus sp.; Staphylococcus haemolyticus (GC 4546)", "value": ">64", "unit": "µg/mL"}, {"measurement": "MIC Streptococcus agalactiae (GC 4564)", "setting": "Streptococcus sp.; Streptococcus agalactiae (GC 4564)", "value": ">64", "unit": "µg/mL"}, {"measurement": "MIC Streptococcus pneumoniae (GC 4565)", "setting": "Streptococcus sp.; Streptococcus pneumoniae (GC 4565)", "value": 64, "unit": "µg/mL"}, {"measurement": "MIC Streptococcus pyogenes (ID-3187)", "setting": "Streptococcus sp.; Streptococcus pyogenes (ID-3187)", "value": 64, "unit": "µg/mL"}]}
